Results from patent publication US20110009597A1, “RECOMBINANT GANODERMA LUCIDIUM IMMUNOMODULATORY PROTEIN (rLZ-8) AND USES THEREOF” (priority 2008, published 2011).

B1: FITC-rLZ-8: rLZ-8 labelled with Fluorescein-5-Isothiocyanate (FITC) (conjugate, UniProt P14945 2-111, looked up)
Immunomodulatory protein Ling …: SDTALIFRLAWDVKKLSFDYTPNWGRGNPNNFIDTVTFPKVLTDKAYTYRVAVSGRNLGVKPSYAVESDGSQKVNFLEYNSGYGIADTNTIQVFVVDPDTNNDFIIAQWN
modifications: FITC label

Key:
S180 cells = assay: Mouse transplanted S180 subcutaneous tumor inhibition; type: in vivo, Mice; conditions: CTX 20 mg·kg^−1 intraperitoneal
Procedure: (§1) Mice, 18-22 g, males and females were equally divided, provided by Jilin University Laboratory Animal Center; Mice Ehrlich ascites cells strain, provided by our laboratory S180; Cyclophosphamide (CTX), offered by Jiangsu Hengrui Medicine Co., Ltd., lot number: 06101921. S180 ascites tumors and solid tumors in experiment group were divided into normal control group, negative control group, positive control group, rLZ-8 low-dose treatment group (0.25 mg·kg^−1), rLZ-8 medium-dose treatment group (0.5 mg·kg^−1), rLZ-8 high-dose treatment group (1 mg·kg^−1). For each group 10 mice.
(§2) Select well-growing S180 cells, dilute appropriately with sterile saline into a tumor cell suspension, cell counts for 10^7·L^−1, under the right armpit of each mouse inoculated subcutaneously 0.2 ml (except for the normal control group). Treatment after 24 h of vaccination. Normal control group and negative control group were given saline 0.2 ml·each^−l·d^−1, intraperitoneal injection; positive control group were given cyclophosphamide 20 mg·kg^−1, intraperitoneal injection. rLZ-8 treatment groups were given doses of tail venous injection respectively, 0.2 ml·each^−1·d^−1, in 10 consecutive days. Draw blood from orbital venous plexus 10 days before and after medication respectively, sent to Jilin University No. 1 Hospital clinical laboratory to test and analyze the number of WBC. Kill all mice the next day of drug withdrawal at cervical dislocation, dissect anatomically and take out the tumors, weigh tumors, calculate the inhibition rate using the following equation:
Inhibition rate (%)=(average tumore weight of the control group−average tumore weight of the experiment group)/average tumor weight of the control group×100%

WBC [1] = assay: Number of leukocytes in S180 tumor-bearing mice; conditions: CTX 20 mg·kg^−1
Procedure: as §1
as §2, with “Kill all mice the next day of drug withdrawal at cervical dislocation, dissect anatomically and take out the tumors, weigh tumors, calculate the inhibition rate using the following equation:” left out

[2] = test system: Mouse hepatoma cell strain H22; assay: H22 subcutaneous tumor inhibition experiment; type: in vivo, Mice; conditions: CTX 20 mg·kg^−1 intraperitoneal
Procedure: (§3) Mice, weight 18-22g, males and females were divided equally, from Jilin University Laboratory Animal Center. Mouse hepatoma cell strain H22, offered by our laboratory. Cyclophosphamide (CTX), offered by Jiangsu Hengrui Medicine Co., Ltd., lot number: 06101921.
(§4) H22 hepatoma cells experiment group were divided into normal control group, negative control group, positive control group, rLZ-8 low-dose treatment group (0.25 mg·kg^−1), rLZ-8 medium-dose treatment group (0.5 mg·kg^−1), rLZ-8 high-dose treatment group (1 mg·kg^−1). For each group 10 mice.
H22 subcutaneous tumor tumor inhibition experiment methods: Select well-growing 1-122 cells, dilute appropriately with sterile saline into a tumor cell suspension, cell counts for 10^7·L^−1, under the right armpit of each mouse inoculated subcutaneously 0.2 ml (except for the normal control group). Treatment after 24 h of vaccination. Normal control group and negative control group were given saline 0.2 ml·each^−1·d^−1, intraperitoneal injection; positive control group were given cyclophosphamide 20 mg·kg^−1, 0.2 ml·each^−1·d^−1, intraperitoneal injection. rLZ-8 treatment groups were given doses of tail venous injection respectively, 0.2 ml·each^−1·d^−1, in 10 consecutive days. Draw blood from orbital venous plexus 10 days before and after medication respectively, sent to Jilin University No. 1 Hospital clinical laboratory to test and analyze the number of WBC. Kill all the mice the next day of drug withdrawal at cervical dislocation, dissected anatomically and took out the tumors, weigh tumors, calculated the inhibition rate using the following equation:
Inhibition rate (%)=(average tumore weight of the control group−average tumor weight of the experiment group)/average tumor weight of the control group×100%

WBC [3] = assay: WBC numbers in H22 tumor-bearing mice; conditions: CTX 20 mg·kg^−1
Procedure: as §3, §4
H22 subcutaneous tumor tumor inhibition experiment methods: Select well-growing 1-122 cells, dilute appropriately with sterile saline into a tumor cell suspension, cell counts for 10^7·L^−1, under the right armpit of each mouse inoculated subcutaneously 0.2 ml (except for the normal control group). Treatment after 24 h of vaccination. […] Kill all the mice the next day of drug withdrawal at cervical dislocation, dissected anatomically and took out the tumors, weigh tumors, calculated the inhibition rate using the following equation: […]

HL-60 cells = assay: FITC-rLZ-8 labeling of HL-60 cells; type: binding
Procedure: Fluorescence microscope 80i (Nikon), IMDM cell culture medium (Hyclone), fetal bovine serum (FBS, Gibco), FITC-rLZ-8 and isotonic PBS buffer (pH7.2) Prepared by our laboratory.
Vaccinated the HL-60 by 2×106 inoculation on 24-hole plate, each hole 0.5 ml, with IMDM (2% FBS) culture medium prepared FITC-rLZ-8 for 100 ng·ml^−1, each hole 0.5 ml hatching (37° C.), establish a control group, experiment group 1 h and experiment group 6 h, draw the cells respectively from 1 h and 6 h, mixing into 1.5 ml EP tube, 1000 r·min^−1 centrifuge, clear the supernatant, wash with PBS 3 times, re-suspend after washing.

rat myocardial tissues = assay: FITC-rLZ-8 labeling of rat myocardial tissues; type: binding; conditions: FITC-rLZ-8 100 ng·ml^−1, 1 h, 37° C.
Procedure: Leica CM1850 frozen slicer; wistar rat; fluorescence microscope 80i (Nikon); isotonic PBS buffer (pH7.2); fetal bovine serum (FBS, Gibco); FITC-rLZ-8 is prepared by our laboratory. Cut the rats at neck and kill them, and strip the hearts, put them to frozen microtome till the temperature dropped to −20° C. for slicing, hatching for 1 h at 37° C. when the myocaridial and PBS preparation of FITC-rLZ-8 solution (100 ng·ml^−1), observing under fluorescence microscope to observe, and establish a blank control group.

rabbit chondrocytes = assay: FITC-rLZ-8 labeling of primary rabbit chondrocytes; type: binding; conditions: FITC-rLZ-8 0.25 μg·ml^−1, 1 h, 37° C.
Procedure: Japanese white rabbits (male, 2.5 kg) 4; surgical instruments; 025% trypsogen+0.02% EDTA; 0.2% collagenasell; D-Hanks; IMDM medium ([…], vitamin C, double-antibody); 0.025 mg·ml^−1 Poly-lysine solution; sterile water for injection (WFI).
Fix the experiment animals and execute them with air embolism, skinned abdominal in the middle and exposed the limbs, cutting the muscle fascia with scissors, disconnected the backbone from os longum, remove carefully the entire knee, hip and shoulder bones, with a rough pruning, immersed into D-Hanks. Moved the beaker with tissues into the super-clean units, move the tissues after pruning and cleansing into the 2nd sterile D-Hanks cup; assemble the knife, cutting a thin layer of cartilage off, use curved forceps move into the 6 cm culture incubator, washing with D-Hanks three times, discard majority of D-Hanks, cut the cartilage into 1 mm slices with ophthalmic scissors, discard majority of D-Hanks, spoon removing the broken bone vials into a 10 cm^2 culture flask, mix with trypsogen EDTA for digestion, 37° C., 30 min; replace the trypsogen for collagenase, put it into the hatching incubator of 37° C., taking out and shaking 5 min every 1 h, with 4-4.5 h, finish digestion. Prepare it to the cell suspension solution and mix 3 ml IMDM containing FBS 15%, 5×10^4·ml^−1 vaccinated into the culture flask. […]

Molecule	Inhibition rate (%) (S180 cells)	Tumor weight (S180 cells) [g]	Number of leukocytes, 10th day of medication (WBC [1])	Inhibition rate (%) [2] [%]	Tumor weight [2] [g]	WBC numbers, 10th day of medication (WBC [3])	cell appearance of HL-60 (HL-60 cells; FITC-rLZ-8 100 ng·ml^−1, group 6 h)	fluorescence of HL-60 cells (HL-60 cells; FITC-rLZ-8 100 ng·ml^−1, incubation of 1 h and 6 h)	fluorescence of myocardial tissues (rat myocardial tissues)	fluorescence of rabbit chondrocytes (rabbit chondrocytes)
O=P1(N(CCCl)CCCl)NCCCO1 (stereo not shown) [CTX, Cyclophosphamide, reference compound]	65.3	0.35 ± 0.02	4.41 ± 0.25	62.5	0.45 ± 0.02	4.49 ± 0.21				
B1							agglutination of cells	strong green fluorescence	without visible fluorescence	without green fluorescence
